Literature values as cited in patent publication US20070275092A1, “Therapeutic composition supporting the immune system” (priority 2005, published 2007).

Details: per day

SMILES: [Zn] [zinc]
- dosage well tolerated but with potential side effects such as anemia (attributable to copper deficiency): 200 mg
